Reference: PubChem BioAssay (NCI)
Values joined by “and” are separate entries in the source; they are usually repeats but may differ in a detail not shown here. Equal values may be shown once.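 In this assay, cells in 96-well plates receive the compound at five concentrations for 48 hours. Endpoints are linearly interpolated between the surrounding concentrations. Abbreviation: GI50, concentration required for 50% inhibition of growth. TGI denotes the concentration required for complete inhibition of growth.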

How the values were obtained:
Experiment in all cases: NCI anticancer screen, dose series, 48 h
[1] = test system: NCI-H460 lung
[2] = test system: M14 melanoma
[3] = test system: IGROV1 ovarian
[4] = test system: SF-539 CNS
[5] = test system: SF-268 CNS
[6] = test system: HL-60(TB) leukemia
[7] = test system: SF-295 CNS
[8] = test system: UACC-62 melanoma
[9] = test system: OVCAR-4 ovarian
[10] = test system: CAKI-1 renal

## Clc1coc2nc3ccccc3c(Nc3ccc4c(c3)OCO4)c12
[1]
  GI50: 1.98 µM
  TGI: 14.5 µM
[2]
  GI50: 0.699 µM
  TGI: 13.8 µM
[3]
  GI50: 5.95 µM
  TGI: > 100 µM
[4]
  GI50: 2.46 µM
  TGI: 7.42 µM
[5]
  GI50: 5.6 µM
  TGI: 54 µM
[6]
  GI50: 0.808 µM
  TGI: 8.82 µM
[7]
  GI50: 1.21 µM
  TGI: 4.42 µM
[8]
  GI50: 0.408 µM
  TGI: 5.32 µM
[9]
  GI50: 22.8 µM
  TGI: > 100 µM
[10]
  GI50: 1.51 µM
  TGI: 10.6 µM

## Cc1ccc(C(SCC(N)C(=O)O)(c2ccccc2)c2ccc(C)cc2)cc1 (centres undefined)
[1]
  GI50: 0.307 µM
  TGI: 12 µM
[2]
  GI50: 0.0316 µM
  TGI: 0.147 µM
[3]
  GI50: 0.526 µM
  TGI: 26.1 µM
[4]
  GI50: 0.129 µM
  TGI: 2.47 µM
[5]
  GI50: 0.257 µM
  TGI: 23.9 µM
[6]
  GI50: 0.235 µM
  TGI: 0.588 µM
[7]
  GI50: 0.167 µM
  TGI: 2.15 µM
[8]
  GI50: 0.119 µM
  TGI: 17.3 µM
[9]
  GI50: 13.4 µM
  TGI: 72.7 µM
[10]
  GI50: 0.402 µM
  TGI: 20.1 µM

## C=C(F)C(=O)N1CCN(c2nc(OC[C@@H]3CCCN3C)nc3c2CCN(c2cccc4cccc(Cl)c24)C3)C[C@@H]1CC#N
[1]
  GI50: 1.05 µM
  TGI: 2.38 µM
[2]
  GI50: 1.06 µM
  TGI: 2.34 µM
[3]
  GI50: 1.31 µM
  TGI: 3.2 µM
[4]
  GI50: 0.936 µM
  TGI: 2.25 µM
[5]
  GI50: 1.37 µM
  TGI: 3.37 µM
[6]
  GI50: 0.86 µM
  TGI: 2.5 µM
[7]
  GI50: 1.48 µM
  TGI: 3.13 µM
[8]
  GI50: 1.66 µM
  TGI: 3.25 µM
[9]
  GI50: 0.994 µM
  TGI: 3.3 µM
[10]
  GI50: 0.926 µM
  TGI: 2.44 µM

## O=C1c2ccccc2C(=O)C1(Cl)C1(S(=O)(=O)O)c2ccccc2-c2ccccc21
[1]
  TGI: > 100 µM
[2]
  TGI: > 100 µM
[3]
  TGI: > 100 µM
[4]
  TGI: > 100 µM
[5]
  TGI: > 100 µM
[6]
  TGI: > 100 µM
[7]
  TGI: > 100 µM
[8]
  TGI: > 100 µM
[9]
  TGI: > 100 µM
[10]
  TGI: > 100 µM

## Cn1cc(C2=C(c3ccc4ccccc4c3)C(=O)NC2=O)c2ccccc21
[1]
  GI50: > 25 µM
  TGI: > 25 µM
[2]
  GI50: > 21 µM
  TGI: > 25 µM
[3]
  GI50: > 19.5 µM
  TGI: > 25 µM
[4]
  GI50: > 25 µM
  TGI: > 25 µM
[5]
  GI50: > 25 µM
  TGI: > 25 µM
[6]
  GI50: > 21.4 µM
  TGI: > 25 µM
[7]
  GI50: > 23.5 µM
  TGI: > 25 µM
[8]
  GI50: 21.3 µM
  TGI: > 25 µM
[9]
  GI50: > 25 µM
  TGI: > 25 µM
[10]
  GI50: > 16.7 µM
  TGI: > 25 µM

## O=S(O)CCCCSSCC(O)C(O)CSSCCCCS(=O)O (centres undefined)
[1]
  TGI: > 100 µM
[2]
  TGI: 24.2 µM and 30.6 µM
[3]
  TGI: > 100 µM
[4]
  TGI: 69.7 µM and > 100 µM
[5]
  TGI: 32.1 µM and 57.9 µM
[6]
  TGI: 53.9 µM and > 100 µM
[7]
  TGI: 33.1 µM and 37.5 µM
[8]
  TGI: 25.6 µM and 38.2 µM
[9]
  TGI: 19.9 µM and 23.8 µM
[10]
  TGI: > 100 µM

## CC(C)=C[C@@H]1C[C@H](C)[C@H]2CC[C@H](C)C3=C2[C@](O)(OC3=O)[C@]1(C)O
[1]
  GI50: > 100 µM
  TGI: > 100 µM
[2]
  GI50: > 100 µM
  TGI: > 100 µM
[3]
  GI50: > 100 µM
  TGI: > 100 µM
[4]
  GI50: > 100 µM
  TGI: > 100 µM
[5]
  TGI: > 100 µM
[6]
  GI50: > 100 µM
  TGI: > 100 µM
[7]
  GI50: > 100 µM
  TGI: > 100 µM
[8]
  GI50: 99.8 µM
  TGI: > 100 µM
[9]
  GI50: > 100 µM
  TGI: > 100 µM
[10]
  GI50: > 100 µM
  TGI: > 100 µM

## O=S(=O)([O-])c1ccc2c(c1)-c1nc-2nc2[n-]c(nc3nc(nc4[n-]c(n1)c1ccc(S(=O)(=O)[O-])cc41)-c1cc(S(=O)(=O)[O-])ccc1-3)c1ccc(S(=O)(=O)[O-])cc21.[Cu+2].[Na+]
[1]
  GI50: 4.65 µM
  TGI: > 100 µM
[2]
  GI50: > 37.4 µM
  TGI: > 100 µM
[3]
  GI50: > 100 µM
  TGI: > 100 µM
[4]
  GI50: > 100 µM
  TGI: > 100 µM
[5]
  GI50: > 69.8 µM
  TGI: > 100 µM
[6]
  GI50: 0.174 µM
  TGI: > 17.7 µM
[7]
  GI50: 98.4 µM
  TGI: > 100 µM
[8]
  GI50: 21.7 µM
  TGI: > 100 µM
[9]
  GI50: 5.31 µM
  TGI: > 80.4 µM
[10]
  GI50: > 100 µM
  TGI: > 100 µM

## O=C(c1ccccc1)c1cc(Cl)ccc1OCCCCN1CCN(CCCCOc2ccc(Cl)cc2C(=O)c2ccccc2)CC1
[1]
  GI50: 2.17 µM
  TGI: 4.87 µM
[2]
  GI50: 2.01 µM
  TGI: 4.14 µM
[3]
  GI50: 1.6 µM
  TGI: 3.22 µM
[4]
  GI50: 4.8 µM
  TGI: 15.6 µM
[5]
  GI50: 7.03 µM
  TGI: 23.8 µM
[6]
  GI50: 2.3 µM
  TGI: 4.9 µM
[7]
  GI50: 2 µM
  TGI: 4.15 µM
[8]
  GI50: 9.87 µM
  TGI: 21.9 µM
[9]
  GI50: 6.63 µM
  TGI: 20.5 µM
[10]
  GI50: 4.08 µM
  TGI: 15.1 µM

## Cc1ccc(SC(C)/C=C/NNC2=NC(c3ccccc3)C(c3ccccc3)=NN2)cc1 (centres undefined)
[1]
  TGI: > 100 µM
[2]
  TGI: > 100 µM
[3]
  TGI: > 100 µM
[4]
  TGI: > 100 µM
[5]
  TGI: > 100 µM
[6]
  TGI: 42.5 µM
[7]
  TGI: > 100 µM
[8]
  TGI: 48.7 µM
[9]
  TGI: > 100 µM
[10]
  TGI: 46.6 µM

## C[C@H]1c2cccc(O)c2C(O)=C2C(=O)[C@]3(O)C(O)=C(C(N)=O)C(=O)[C@@H](N(C)C)[C@@H]3[C@@H](O)[C@@H]21
[1]
  GI50: 2.96 µM
  TGI: 10.2 µM
[2]
  GI50: 3.28 µM
  TGI: 12.6 µM
[3]
  GI50: 2.86 µM
  TGI: 9.26 µM
[4]
  GI50: 3.88 µM
  TGI: 14.8 µM
[5]
  GI50: 3.33 µM
  TGI: 12.1 µM
[6]
  GI50: 2.3 µM
  TGI: 6.56 µM
[7]
  GI50: 2 µM
  TGI: 5.69 µM
[8]
  GI50: 2.53 µM
  TGI: 9.68 µM
[9]
  GI50: 3.34 µM
  TGI: 42.1 µM
[10]
  GI50: 2.08 µM
  TGI: 8.67 µM
